Results from publication doi:10.1101/2024.05.30.596569v1 (bioRxiv, 2024).
Values after ≈ are worked out from the molar mass of the structure shown. Each block holds one compound with its values, some of them ahead of it.

Columns and labels:
E.c K0416 = assay: microbe, parasite or virus in culture; conditions: Escherichia coli, K0416, read-out: Minimum inhibitory concentration, E.c K0416
A. baumannii ATCC 19606 = conditions: Mueller Hinton II broth, 5 × 10^5 cells mL^−1, 18h, turbidity 600 nm, triplicate
P. aeruginosa strains = conditions: cited from earlier work
E.c ATCC25922 ΔTolC = conditions: Table S3, triplicate
[1] = pH 7.4

MIC (E.c K0416): > 0.5 µg/mL
Compound: O=C(O)c1cn(C2CC2)c2cc(N3CCNCC3)c(F)cc2c1=O [CIP, ciprofloxacin]

A-B permeability (Caco-2) (Caco-2 cells): 38.0 10^-6 cm s^-1 | B-A permeability (Caco-2) (Caco-2 cells): 17.2 10^-6 cm s^-1
Compound: CC(C)NCC(O)COc1cccc2ccccc12 (stereo not drawn) [Propranolol]

MIC (E.c K0416): 64 µg/mL (≈ 117 µM)
Compound: CC(C)(O/N=C(\C(=O)N[C@@H]1C(=O)N2C(C(=O)[O-])=C(C[n+]3ccccc3)CS[C@H]12)c1csc(N)n1)C(=O)O [CZA, ceftazidime]

Compound: C[C@@H](O)[C@H](NC(=O)[C@H]1NC(=O)[C@H]([C@@H](C)O)NC(=O)[C@H]2NC(=O)[C@H](CC(N)=O)NC(=O)[C@@H](N)Cc3c[nH]c4c(cccc34)OC2c2c[nH]c3cc(ccc23)C1CCCN)C(=O)N[C@@H](Cc1ccccc1)C(=O)O (stereo partly drawn) [WNWTKTF]
Minimum inhibitory concentration, Ab ATCC 19606 (A. baumannii ATCC 19606): no activity against A. baumannii

Compound: murepavadin
MIC90 against P. aeruginosa strains (P. aeruginosa strains): 0.12 µg/mL

MIC (E.c K0416): 4 µg/mL (≈ 8.38 µM)
Compound: CNC(C)C1CCC(N)C(OC2C(N)CC(N)C(OC3OCC(C)(O)C(NC)C3O)C2O)O1 (stereo not drawn) [GEN, gentamicin]
Minimum inhibitory concentration, E.c ATCC25922 ΔTolC (E.c ATCC25922 ΔTolC): 0.5 µg/mL (≈ 1.05 µM)

Distribution coefficient (log D), logD7.4 [1]: 1.12
Compound: CO[C@H]1/C=C/O[C@@]2(C)Oc3c(C)c(O)c4c(O)c(c(/C=N/N5CCN(C)CC5)c(O)c4c3C2=O)NC(=O)/C(C)=C\C=C\[C@H](C)[C@H](O)[C@@H](C)[C@@H](O)[C@@H](C)[C@H](OC(C)=O)[C@@H]1C [Rifampicin]
